Test [1] addresses T1, human fascin 1 (Homo sapiens, UniProt Q16658).
T1 construct: GST (N, cleaved yes); made in house; host or cells: Escherichia coli BL21/DE3 (pGEX4T-fascin 1 plasmid)
Description: Fascin inhibition (actin bundling) assay, image-based. In kind it is biochemical. As to conditions: in the presence of 50 μm of the compound relative to bundle activity when the compound was not present; read-out: Inhibition (percentage reduction of bundle activity). In a few lines: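 GST-tagged human fascin 1 from E. coli, thrombin-cleaved, was preincubated with compounds for 30 min, then polymerized actin was added; compounds were at 30 μM final. Bundles captured on poly-D-lysine plates were imaged, and background-corrected bundle length per well was computed, with DMSO-only wells as negative controls.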

For test [2], the system named is MDA-MB-231 human breast tumor cells. Kind of test: Boyden-chamber cell migration assay. The test is classed as cell-based. As to conditions: migration 6 h. As for the experimental part: Certain tumor cells with fascin expression are listed below.
Exemplifying procedure: MDA-MB-231 cells (5×10^4) or 4T1 Cells (1×10^5) were suspended in 100 μl starvation medium and added to the upper chamber of an insert (6.5 mm diameter, 8 μm pore size; Becton Dickson). The insert was placed in a 24-well plate containing 700 μL starvation medium with or without 10% FBS. […] Migration assays were performed for 6 h and cells are fixed with 3.7% formaldehyde. Cells were stained with crystal violet staining solution, and cells on the upper side of the insert were removed with a cotton swab. Three randomly selected fields (×10 objectives) on the lower side of the insert were photographed, and the migrated cells were counted. Migration was expressed as average number of migrated cells in a field.

SMILES strings stand for the structures. Where only a bound is given, the exact number is not on record here.

The inhibition is the relative decrease from the control value, in per cent. A word on the IC50: it is the midpoint of a concentration-inhibition curve. Low readings indicate greater potency, high ones weaker potency. Regarding `O=C(Nc1nn(Cc2ccc(C(F)(F)F)cc2)c2ccccc12)c1cccnn1` [Compound 49, N-(1-(4-(trifluoromethyl)benzyl)-1H-indazol-3-yl)pyridazine-3-carboxamide], the inhibition at 50 µM in test [1] was 100%. In test [2], the IC50 came to 13 µM.

`O=C(Nc1nn(Cc2ccc(C(F)(F)F)cc2)c2ccccc12)c1ccno1` [Compound 25, N-(1-(4-(trifluoromethyl)benzyl)-1H-indazol-3-yl)isoxazole-5-carboxamide]: in test [1], the inhibition at 50 µM came out at 100%. The molecule further yielded an IC50 in test [2] of 54 µM.

Turning to `O=C(Nc1nn(Cc2ccc(Cl)cc2)c2ccccc12)c1ccno1` [Compound 66, N-(1-(4-chlorobenzyl)-1H-indazol-3-yl)isoxazole-5-carboxamide], the inhibition at 50 µM in test [1] worked out at 100%. The half-inhibitory concentration (IC50) in test [2] is 161 µM.

`Cc1nocc1C(=O)Nc1nn(Cc2ccc(C(F)(F)F)cc2)c2ccccc12` [Compound 35, 3-methyl-N-(1-(4-(trifluoromethyl)benzyl)-1H-indazol-3-yl)isoxazole-4-carboxamide]: the inhibition at 50 µM in test [1] is 100%. This molecule returned an IC50 in test [2] of 18 µM.

For the molecule `Cc1nocc1C(=O)Nc1nn(Cc2ccc(Cl)cc2)c2ccccc12` [Compound 65, N-(1-(4-chlorobenzyl)-1H-indazol-3-yl)-3-methylisoxazole-4-carboxamide], in test [1], the inhibition at 50 µM worked out at 90%. The same molecule yielded an IC50 in test [2] of 64 µM.

Take `Nc1nn(Cc2ccc(CO)cc2)c2ccccc12` [Compound 103, (4-((3-amino-1H-indazol-1-yl)methyl)phenyl)methanol]: the inhibition at 50 µM in test [1] was below 10%.

Regarding `O=C(Nc1nn(Cc2ccc(C(F)(F)F)cc2)c2ccccc12)c1cccc(Cl)c1` [Compound 7, 3-chloro-N-(1-(4-(trifluoromethyl)benzyl)-1H-indazol-3-yl)benzamide], the inhibition at 50 µM in test [1] came to 10%.

For the molecule `N#Cc1ccc2c(c1)c(NC(=O)c1cccnn1)nn2Cc1ccc(C(F)(F)F)nc1` [N-(5-cyano-1-((6-(trifluoromethyl)pyridin-3-yl)methyl)-1H-indazol-3-yl)pyridazine-3-carboxamide], the inhibition at 50 µM in test [1] was below 10%.

(Values after patent publication US10227345B2, “Compounds and methods for inhibiting fascin” (Cornell University, priority 2014, dated 2019).)
